Results from patent publication US20100075917A1, “THIONUCLEOSIDES AND PHARMACEUTICAL APPLICATIONS” (priority 2006, published 2010).
Where two headings read alike, the source gives them in different places.

Experiments:
[1] = system: human CEM-SS T lymphoma cells; test: Measurement of the intracellular concentrations of 2′-deoxyribonucleotides (dNTP); type: cell-based; conditions: 24 hours; for activity at 50 µM: 1 at 50 μM
Protocol: The protocol adopted for performing this test (Roy, B.; Beuneu, C.; Roux, P.; Buc, H.; Lemaire, G.; Lepoivre, M. Simultaneous determination of pyrimidine or purine deoxyribonucleoside triphosphates using a polymerase assay. Anal. Biochem., 1999, 269, 403-409) consists in culturing human CEM-SS T lymphoma cells in the presence of the test compounds. The concentrations of dNTP and in particular of dATP are measured after 24 hours of incubation. dATP is the nucleoside triphosphate whose concentration decreases the most during tests with standard ribonucleotide reductase inhibitors such as hydroxyurea, which was used as control.
The quantification is related to the number of live cells counted after staining with trypan blue or related to the initial number of cells (approximately two million). It is measured as a percentage relative to a control manipulation.
The effects of compound 1 at 50 μM on the concentrations of 2′-deoxynucleoside 5′-triphosphates (dNTP) necessary for DNA synthesis are calculated from the dNTP concentrations measured after 24 hours and determined in pmol of dNTP/million cells. The percentages are expressed as a percentage of the control with an average of four controls, taking the counts into account, and are compared with that of an anticancer agent, hydroxyurea (HU), tested at a concentration of 63 μM.

[2] = system: L1210 cell line (mouse lymphoma); test: Incorporation of tritiated thymidine; type: cell-based; conditions: L1210 cells
Protocol: These tests are performed on the L1210 cell line (mouse lymphoma) according to a published protocol (Lepoivre M., Flaman J.-M., Bobé P., Lemaire G., Henry Y. J. Biol. Chem., 1994, 269, 21891-21897). The wells are inoculated (10 000 cells per well) and, after culturing for 72 hours, [^3H]thymidine and the test compound are added to the culture medium. After incubation for 8 hours, the DNA is separated from the other cell constituents and the amount of labeled thymidine incorporated is quantified and compared with a control (without compound).
The effects of compound 1 at 50 μM and 200 μM, respectively, on the concentrations of tritiated thymidine incorporated are expressed as a percentage of the control.

[3] = system: human CEM cells; test: Cytotoxicity (MTT) on CEM cells; type: cell-based; conditions: CCRF-CEM; for CC50: read-out: CC50 CEM
Protocol: (§1) The cytotoxic effect of a compound is studied on human CEM cells and MCF-7 mammary carcinoma cells that are or are not resistant to gemcitabine, which is an anticancer nucleoside used in chemotherapy.
(§2) The cytotoxicity (CC50) was estimated by measuring the reduction of 3-(4,5-dimethylthiazol-2-yl)-2,5-diphenyltetrazolium bromide (MTT), which is converted into insoluble violet formazan. To do this, 100 000 cells (human CEM-SS or MCF-7 lines) are inoculated per well in 100 μl of culture medium, in 96-well microtitration plates. After 24 hours, the test products are added in 100 μl and incubation is continued for 48 to 72 hours. MIT is then added in a proportion of 20 μl of a solution at 5 mg/ml in PBS. Three hours later, 100 μl of a DMF/acetic acid/HCl/SDS (sodium dodecyl sulfate) solution are added. After 3 hours at 37° C., the absorbance of the formazan is measured at 590 nm and compared with that of the untreated control.

[4] = system: MCF-7 mammary carcinoma cells; test: Cytotoxicity (MTT) on MCF-7 cells; type: cell-based, human; conditions: for CC50: MCF7, read-out: CC50 MCF-7
Protocol: as §1, §2

[5] = system: MCF-7* (MCF-7 mammary carcinoma cells resistant to gemcitabine); test: Cytotoxicity (MTT) on gemcitabine-resistant MCF-7 cells; type: cell-based, human; conditions: listed as printed twice per table
Protocol: as §1, §2
Compounds 1 and 3 to 8 corresponding to formula (II) above; compound 2 corresponding to the non-silyl compound, it corresponds to formula (II) above in which R1 represents CH2CH2CH(CH3)2 and was also tested to observe a possible effect of the silicon. These compounds were evaluated for their cytotoxicity on human CEM cells and MCF-7 mammary carcinoma cells resistant (MCM-7*) or non-resistant (MCF-7) to gemcitabine, which is an anticancer nucleoside used in chemotherapy.

[6] = system: L1210/0 murine leukemia cells; test: Cytotoxic effect on L1210/0 cells; type: cell-based; conditions: Tables 5 and 7, L1210/0 cells
[7] = system: FM3A/0 murine mammary carcinoma cells; test: Cytotoxic effect on FM3A/0 cells; type: cell-based; design: unit not given beside the values; conditions: Tables 5 and 7, FM3A/0 cells
[8] = system: human Molt4/C8 cells; test: Cytotoxic effect on Molt4/C8 cells; type: cell-based; conditions: Tables 5 and 7, Molt4/C8 cells
[9] = system: human CEM T4 lymphocytes; test: Cytotoxic effect on CEM T4 lymphocytes; type: cell-based; design: unit not given beside the values; conditions: Tables 5 and 7, CEM cells
[10] = system: HeLa cells; test: Cytotoxic effect on HeLa cells; type: cell-based; design: unit not given beside the values; conditions: Tables 5 and 7, HeLa cells
[11] = system: HIV-1; test: Anti-HIV-1 effect in CEM cells; type: cell-based; conditions: Human immunodeficiency virus 1, CCRF-CEM
Protocol: (§3) The evaluation test is described in Roy, B.; Chambert, S.; Lepoivre M.; Aubertin, A.-M.; Balzarini, J.; Décout, J.-L., Deoxyribonucleoside 2′- or 3′-mixed disulfides: prodrugs to target ribonucleotide reductase and/or to inhibit HIV reverse transcription. J. Med. Chem. 2003, 46, 2565-2568.
(§4) The toxicity and the antiviral activities were measured at different concentrations, and their evolution as a function of the concentration makes it possible to evaluate: • the concentration at which 50% of the cells are dead in the absence of virus (CC 50) for each of the test compounds, from the change in absorbance at 540 nm of formazan as a function of the concentration of test compound, • the concentration of compound that leads to a 50% reduction in the activity of viral reverse transcriptase (EC 50). This concentration is determined from the curve representing the change in the percentage of “remaining reverse transcriptase” activity (defined as being the ratio of the activity of the reverse transcriptase in the presence of the test compound to that of the untreated cells) as a function of the concentration of test compound.
(§5) EC50: concentration required to afford 50% protection to the CEM cells against the cytopathogenicity of HIV;

[12] = system: HIV-2; test: Anti-HIV-2 effect in CEM cells; type: cell-based; conditions: Human immunodeficiency virus 2, CCRF-CEM, CEM cells, read-out: EC50 HIV-2
Protocol: as §3, §4, §5

[13] = system: HIV-2; test: Anti-HIV-2 effect in CEM/TK− cells; type: cell-based; conditions: Human immunodeficiency virus 2, CEM-TK(-); Third Series; CEM cells having no thymidine kinase activity
Protocol: as §3, §4, §5
• Effect in CEM not expressing thymidine kinase activity (CEM/TK^−, cells having no thymidine kinase activity).

[14] = system: Moloney sarcoma virus; test: Inhibition of transformation of mouse embryo C3H/3T3 cells induced by Moloney sarcoma virus; type: cell-based; design: MIC (minimum inhibitory concentration): unit not given here
Source text: 2.2. Inhibitory Effect on the Transformation of Mouse Embryo C3H/3T3 Cells Induced by Moloney Sarcoma Virus (Model of Infection with HIV)

[15] = Homo sapiens, MCF7, MCF-7 resistant to gemcitabine
[16] = Third Series, read-out: EC50 HIV-1

C[Si](C)(C)CCSC1=C[C@@H](CO)O[C@H]1n1ccc(=O)[nH]c1=O [Compound 1, 2′,3′-Didehydro-2′,3′-dideoxy-2′-(2-trimethylsilyl)ethylthiouridine]
activity at 50 µM ([1]; read-out: dATP concentration, % of control): 50%
activity at 50 µM ([1]; read-out: dCTP concentration, % of control): 42%
activity at 50 µM ([1]; read-out: dGTP concentration, % of control): 31%
activity at 50 µM ([1]; read-out: dTTP concentration, % of control): 85%
decrease of the incorporation of tritiated thymidine into the DNA ([2]; 50 μM): 38%
tritiated thymidine incorporated as a percentage of the control ([2]; 50 μM): 62%
decrease of the incorporation of tritiated thymidine into the DNA ([2]; 200 μM): 86%
tritiated thymidine incorporated as a percentage of the control ([2]; 200 μM): 14%
CC50 ([3]; Homo sapiens): 156 µM
CC50 ([4]; Homo sapiens): 69 µM

CC(C)CCSC1=C[C@@H](CO)O[C@H]1n1ccc(=O)[nH]c1=O [Compound 2]
CC50 ([3]; Table 3, MTT, human CEM cells): > 200 µM
CC50 ([4]; Homo sapiens): > 200 µM

Cc1cn([C@@H]2O[C@H](CO)C=C2SCC[Si](C)(C)C)c(=O)[nH]c1=O [Compound 3]
CC50 ([3]; Homo sapiens): 13 µM
CC50 ([4]; Homo sapiens): 40 µM
EC50 [5, 15]: 37 µM
EC50 ([5]; MCF-7 resistant to gemcitabine): 41 µM

Cc1cn([C@H]2C=C(SCC[Si](C)(C)C)[C@@H](CO)O2)c(=O)[nH]c1=O [Compound 4, 2′,3′-didehydro-2′,3′-dideoxy-3′-(2-trimethylsilyl)ethylthiothymidine]
CC50 ([3]; Homo sapiens): 82 µM
cytotoxicity at 200 μM, MCF-7 [4]: 33%

C[Si](C)(C)CCSC1=C[C@@H](CO)O[C@H]1n1ccc(N)nc1=O [Compound 5, 2′,3′-Didehydro-2′,3′-dideoxy-2′-(2-trimethylsilyl)ethylthiocytidine]
CC50 ([3]; Homo sapiens): 217 µM
cytotoxicity at 200 μM, MCF-7 [4]: 41%

Cc1cn([C@@H]2O[C@H](CO)C=C2S(=O)(=O)CC[Si](C)(C)C)c(=O)[nH]c1=O [Compound 7, 2′,3′-Didehydro-2′,3′-dideoxy-2′-(2-trimethylsilyl)ethylthiothymidine sulfone]
CC50 ([3]; Homo sapiens): 63 µM
CC50 ([4]; Homo sapiens): 120 µM

O=c1ccn([C@@H]2O[C@H](CO)C=C2SSC(Cl)(Cl)Cl)c(=O)[nH]1 [Compound 13, 2′,3′-didehydro-2′,3′-dideoxyuridin-2′-yl trichloromethyl disulfide]
EC50 ([4]; Homo sapiens, MCF7, Table 4, MCF-7): 194 µM
EC50 [5, 15]: 177 µM
EC50 ([5]; MCF-7 resistant to gemcitabine): 194 µM

O=c1ccn([C@@H]2O[C@H](CO)C=C2SSc2ccc([N+](=O)[O-])cc2)c(=O)[nH]1 [Compound 16, 2′,3′-didehydro-2′,3′-dideoxyuridin-2′-yl 4-nitrophenyl disulfide]
cytotoxic effect, L1210/0 [6]: 42 ± 4
cytotoxic effect, FM3A/0 [7]: 45 ± 2
cytotoxic effect, Molt4/C8 [8]: 28 ± 10
cytotoxic effect, CEM [9]: 41 ± 1
cytotoxic effect, HeLa [10]: 16 ± 2
EC50 [11, 16]: 37.5 ± 17.7 µM
EC50 ([12]; Third Series): 9.5 ± 7.8 µM
EC50 [13]: 32.5 ± 25 µM

O=c1ccn([C@@H]2O[C@H](CO)C=C2SSc2ccccc2[N+](=O)[O-])c(=O)[nH]1 [Compound 17, 2′,3′-didehydro-2′,3′-dideoxyuridin-2′-yl 2-nitrophenyl disulfide]
cytotoxic effect, L1210/0 [6]: 43 ± 5
cytotoxic effect, FM3A/0 [7]: 206 ± 25
cytotoxic effect, Molt4/C8 [8]: 42 ± 1
cytotoxic effect, CEM [9]: 40 ± 4
cytotoxic effect, HeLa [10]: 29 ± 9
EC50 [11, 16]: 6.5 ± 4.9 µM
EC50 ([12]; Third Series): ≥ 10 µM
EC50 [13]: > 10 µM

CSS[C@H]1C[C@H](n2ccc(N)nc2=O)O[C@@H]1CO [Compound 19, 2′,3′-Dideoxycytidin-3′-yl methyl disulfide]
EC50 ([3]; Homo sapiens, Tables 4 and 6, CEM cells, some values 'then plateau'): > 200 µM
EC50 [11, 16]: 20 ± 7 µM
EC50 ([11]; read-out: EC50 HIV-1, First and Second Series, first table): 3.3 ± 2.3 µM
EC50 ([12]; First and Second Series, first table): 10.5 ± 9.3 µM
EC50 ([12]; Third Series): 20 ± 7 µM
EC50 [13]: 45 ± 21 µM
EC50 ([14]; C3H/3T3, read-out: EC50 (effective concentration 50%)): 48 ± 2 µM
MIC (minimum inhibitory concentration) ([14]; C3H/3T3 cells, a second bound is given in brackets for some compounds): >100

Cc1cn([C@H]2C[C@H](SSCCCCCCO)[C@@H](CO)O2)c(=O)[nH]c1=O [Compound 30, 3′-deoxythymidin-3′-yl 6-hydroxyhexyl disulfide]
EC50 [11, 16]: 3 µM
EC50 ([12]; Third Series): 4.5 ± 2.1 µM
EC50 [13]: > 10 µM

CSC1=C[C@@H](CO)O[C@H]1n1ccc(=O)[nH]c1=O [Compound 31, 2′,3′-didehydro-2′,3′-dideoxy-2′-methylthiouridine]
EC50 [11, 16]: ≥ 10 µM
EC50 ([12]; Third Series): 6.5 ± 0.7 µM
EC50 [13]: > 10 µM

NC(=O)NO [Hydroxyurea, hydroxyurea, reference compound]
activity at 63 µM ([1]; Hydroxyurea control, 63 μM, read-out: dTTP concentration, % of control): 51%
